Legend:
progenitor stem cells = test: Proliferation and phenotypic responses to bioactive factors: progenitor cells; type: cell-based
Text: (§1) Having access to mixed populations of progenitor stem cells, progenitor stem cell clones, and pluripotent stem cell clones permits one to address the influence of various bioactive factors (e.g. recombinant growth factors, purified compounds, and novel inductive factors) on the growth characteristics and phenotypic expression of these stem cells.
(§2) Cryopreserved cells are thawed and plated in MSC-1 at 5, 10, or 20×10^3 cells per well of gelatinized 24-well plates following the standard protocol. Twenty-four hours after initial plating the medium is changed to testing medium (TM) 1 to 6 (TM-1, TM-2, TM-3, TM-4, TM-5, or TM-6). TM-1 to TM-4 consist of Ultraculture (cat. no. 12-725B, lot. nos. OMO455 [TM-1], 1M1724 [TM-2], 2M0420 [TM-3], or 2M0274 [TM-4], Bio-Whittaker, Walkersville, Md.), medium (EMEM or Opti-MEM 0.01 mM β-mercaptoethanol), and 1% (v/v) antibiotic-antimycotic, pH 7.4. TM-5 consists of 98% (v/v) medium, 1% (v/v) HS, and 1% (v/v) antibiotic-antimycotic, pH 7.4. TM-6 consists of 98.5% (v/v) medium, 0.5% (v/v) HS, and 1% (v/v) antibiotic-antimycotic, pH 7.4. […] Four testing media (TM#'s 1-4), each containing various concentrations of Ultraculture, were used as. […] The four Ultraculture-based testing media were: TM-1=15% (v/v) Ultraculture (Lot no. OMO455): 84% (v/v) medium: 1% (v/v) antibiotics; TM-2=15% (v/v) Ultraculture (Lot no. 1M1724): 84% (v/v) medium: 1% (v/v) antibiotics; TM-3=50% (v/v) Ultraculture (Lot no. 2M0420): 49% (v/v) medium: 1% (v/v) antibiotics; and TM-4=75% (v/v) Ultraculture (Lot no. 2M0274): 24% (v/v) medium: 1% (v/v) antibiotics. Pre-incubation for 24 hr in testing medium alone is used to wash out any potential synergistic components in the MSC-1 medium. Twenty-four hours later the testing medium is changed to one of the following. For controls, TM-1 to TM-6 alone is used. To identify clones of progenitor cells, the medium is replaced with TM-1 to TM-6 containing 2 μg/ml insulin (Sigma), an agent that accelerates the appearance of phenotypic expression markers in progenitor cells (TABLE 12). To identify clones of pluripotent cells, the medium is replaced with TM-1 to TM-6 containing 10^−10 to 10^−6 M dexamethasone (Sigma), a general non-specific lineage-inductive agent (TABLE 13). Control and treated cultures are propagated for an additional 30-45 days with medium changes every other day. Four culture wells are used per concentration per experiment. During the 0-45 day time period the cultures are examined subjectively for changes in morphological characteristics on a daily basis. Alterations in phenotypic expression are correlated with the days of treatment and associated insulin or dexamethasone concentrations. The experiment is then repeated utilizing these parameters to confirm objectively the phenotypic expression markers using established histological, functional/histochemical, ELICA/flow cytometry, and molecular assays (TABLE 13).

pluripotent stem cells = test: Proliferation and phenotypic responses to bioactive factors: pluripotent cells; type: cell-based
Text: as §1, §2

[1] = presence and approximate distribution of differentiated phenotypes within the culture wells

insulin was tested, and the “Proliferation, Progenitor: number of times the agent increased the DNA content per well versus its respective control” value (progenitor stem cells) was 2 times, the “Phenotypic Expression, Progenitor” value (progenitor stem cells; [1]) was “All+++” and the “Proliferation, Pluripotent: number of times the agent increased the DNA content per well versus its respective control” value (pluripotent stem cells) was 1 times. The “activity on pluripotent and progenitor stem cells, in words” value (pluripotent stem cells; pluripotent and progenitor cells) was “stimulated lineage-progression in all progenitor cells, but had no measurable effect on pluripotent cells” and the “Phenotypic Expression, Pluripotent” value (pluripotent stem cells; [1]) was 0.

Reference: patent US10160948B2, “Pluripotent embryonic-like stem cells, compositions, methods and uses thereof” (ABT HOLDING COMPANY, priority 1999, dated 2018)
